Literature values in patent US10190039B2, “Synthetic acid compositions alternatives to conventional acids in the oil and gas industry” (priority 2014, dated 2019).

Details: death in 2-3 minutes

Cl [hydrogen chloride gas, hydrogen chloride]
Level at which death can occur: 1300-2000 ppm
